Measurements reported in US20230279025A1, “KRAS G12D INHIBITORS” (Mirati Therapeutics, Inc., priority 2020, published 2023).
Counter-ions that a name gives are not always drawn.

Molecular target: KRas G12D (Homo sapiens (Human), UniProt P01116, G12D)
Assay: KRas G12D Binding Assay (TR-FRET displacement of Cy5 labelled tracer)
Conditions: GDP-loaded KRAS G12D (amino acids 1:169), 60 minute incubation at 22° C.
Protocol: After a 60 minute incubation at 22° C., the reaction was measured using a PerkinElmer EnVision multimode plate reader via TR-FRET dual wavelength detection, and the percent of control (POC) calculated using a ratiometric emission factor. […] The POC values were fit to a 4-parameter logistic curve and the IC50 value was determined as the concentration where the curve crosses 50 POC.
ND stands for “not determined.”

KRas G12D, sequence (P01116 other isoform, or with tags, fused parts or gaps G12D): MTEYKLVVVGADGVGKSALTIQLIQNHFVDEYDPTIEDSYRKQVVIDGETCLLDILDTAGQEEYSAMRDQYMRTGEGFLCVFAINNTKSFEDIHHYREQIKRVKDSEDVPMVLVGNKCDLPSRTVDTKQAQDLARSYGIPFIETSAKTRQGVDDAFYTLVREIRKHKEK

CN1C[C@H](NC(=O)c2ccccc2C=O)C[C@H]1COc1nc(N2C[C@H]3CC[C@@H](C2)N3)c2cnc(-c3cccc4cccc(Cl)c34)c(F)c2n1 [Example 355, N-((3R,5S)-5-(((4-((1R,5S)-3,8-diazabicyclo[3.2.1]octan-3-yl)-7-(8-chloronaphthalen-1-yl)-8-fluoropyrido[4,3-d]pyrimidin-2-yl)oxy)methyl)-1-methylpyrrolidin-3-yl)-2-formylbenzamide]
IC50: 870 nM

Oc1cc(Cl)c(C(F)(F)F)c(-c2ncc3c(N4C[C@H]5CC[C@@H](C4)N5)nc(OC[C@@]45CCCN4C[C@H](F)C5)nc3c2F)c1 [Example 284, 3-(4-((1R,5S)-3,8-diazabicyclo[3.2.1]octan-3-yl)-8-fluoro-2-(((2R,7aS)-2-fluorohexahydro-1H-pyrrolizin-7a-yl)methoxy)pyrido[4,3-d]pyrimidin-7-yl)-5-chloro-4-(trifluoromethyl)phenol]
IC50: 0.1 nM

Fc1c(-c2cccc3cccc(Cl)c23)ncc2c(N3CC4CCC(C3)N4)nc(OCC34CCCN3C[C@H](F)C4)nc12 (stereo partly drawn) [Example 226, 4-((1R,5S)-3,8-diazabicyclo[3.2.1]octan-3-yl)-7-(8-chloronaphthalen-1-yl)-8-fluoro-2-((2-fluorotetrahydro-1H-pyrrolizin-7a(5H)-yl)methoxy)pyrido[4,3-d]pyrimidine bis-hydrochloride]
IC50: 25.9 nM

Fc1c(-c2cccc3cccc(Cl)c23)ncc2c(N3C[C@H]4CC[C@@H](C3)N4)nc(OCCC3CC(F)(F)C3)nc12 [Example 129, 4-((I R,5S)-3,8-diazabicyclo[3.2.1]octan-3-yl)-7-(8-chloronaphthalen-1-yl)-2-(2-(3,3-difluorocyclobutyl)ethoxy)-8-fluoropyrido[4,3-d]pyrimidine]
IC50: 4090 nM

O=C(OC[C@H]1CC[C@@]2(COc3nc(N4CC5CCC(C4)N5)c4cnc(-c5cccc6cccc(Cl)c56)c(F)c4n3)CCCN12)N1CCOCC1 [Example 445, ((3R,7aR)-7a-(((4-(3,8-diazabicyclo[3.2.1]octan-3-yl)-7-(8-chloronaphthalen-1-yl)-8-fluoropyrido[4,3-d]pyrimidin-2-yl)oxy)methyl)hexahydro-1H-pyrrolizin-3-yl)methyl morpholine-4-carboxylate]
IC50: 2.7 nM

OCc1cccc2cccc(-c3ncc4c(N5C[C@H]6CC[C@@H](C5)N6)nc(OCC56CCCN5CCC6)nc4c3F)c12 [Example 238, (8-(4-((1R,5S)-3,8-diazabicyclo[3.2.1]octan-3-yl)-8-fluoro-2-((tetrahydro-1H-pyrrolizin-7a(5H)-yl)methoxy)pyrido[4,3-d]pyrimidin-7-yl)naphthalen-1-yl)methanol]
IC50: 16.1 nM

O[C@@H]1C[C@@H]2CN(c3nc(OCCn4ccnc4C(F)(F)F)nc4c(F)c(-c5cccc6cccc(Cl)c56)ncc34)C[C@H]1N2 [Example 169, (1R,5R,6R)-3-(7-(8-chloronaphthalen-1-yl)-8-fluoro-2-(2-(2-(trifluoromethyl)-1H-imidazol-1-yl)ethoxy)pyrido[4,3-d]pyrimidin-4-yl)-3,8-diazabicyclo[3.2.1]octan-6-ol]
IC50: 657 nM

Cc1cc2[nH]ncc2c(-c2ncc3c(N4C[C@H]5CC[C@@H](C4)N5)nc(OCC45CCCN4CCC5)nc3c2F)c1C [Example 249, 4-((1R,5S)-3,8-diazabicyclo[3.2.1]octan-3-yl)-7-(5,6-dimethyl-1H-indazol-4-yl)-8-fluoro-2-((hexahydro-1H-pyrrolizin-7a-yl)methoxy)pyrido[4,3-d]pyrimidine]
IC50: 3.5 nM

Fc1cccc(-c2ncc3c(N4C[C@H]5CC[C@@H](C4)N5)nc(OCC45CCCN4CCC5)nc3c2F)c1C1CC1 [Example 304, 4-((1R,5S)-3,8-diazabicyclo[3.2.1]octan-3-yl)-7-(2-cyclopropyl-3-fluorophenyl)-8-fluoro-2-((hexahydro-1H-pyrrolizin-7a-yl)methoxy)pyrido[4,3-d]pyrimidine]
IC50: 29.2 nM

CC1CCc2cccc(-c3ncc4c(N5CC6CCC(C5)N6)nc(OC[C@@]56CCCN5C[C@H](F)C6)nc4c3F)c21 (stereo partly drawn) [Example 429, 4-(3,8-diazabicyclo[3.2.1]octan-3-yl)-8-fluoro-2-(((2R,7aS)-2-fluorotetrahydro-1H-pyrrolizin-7a(5H)-yl)methoxy)-7-(3-methyl-2,3-dihydro-1H-inden-4-yl)pyrido[4,3-d]pyrimidine]
IC50: 18.5 nM

Fc1c(-c2cccc3cccc(-c4c[nH]nn4)c23)ncc2c(N3C[C@H]4CC[C@@H](C3)N4)nc(OCC34CCCN3CCC4)nc12 [Example 180, 7-(8-(1H-1,2,3-triazol-4-yl)naphthalen-1-yl)-4-((1R,5S)-3,8-diazabicyclo[3.2.1]octan-3-yl)-8-fluoro-2-((hexahydro-1H-pyrrolizin-7a-yl)methoxy)pyrido[4,3-d]pyrimidine]
IC50: 76.1 nM

CCc1cccc2cc(O)cc(-c3ncc4c(N5C[C@H]6CC[C@@H](C5)N6)nc(OC[C@]56CCCN5[C@@H](COC(=O)NC)CC6)nc4c3F)c12 [Example 433, ((3R,7aR)-7a-(((4-((1R,5S)-3,8-diazabicyclo[3.2.1]octan-3-yl)-7-(8-ethyl-3-hydroxynaphthalen-1-yl)-8-fluoropyrido[4,3-d]pyrimidin-2-yl)oxy)methyl)hexahydro-1H-pyrrolizin-3-yl)methyl methylcarbamate]
IC50: 0.9 nM

Cn1cc(CCOc2nc(N3C[C@H]4CC[C@@H](C3)N4)c3cnc(-c4cccc5cccc(Cl)c45)c(F)c3n2)cn1 [Example 146, 4-((1R,5S)-3,8-diazabicyclo[3.2.1]octan-3-yl)-7-(8-chloronaphthalen-1-yl)-8-fluoro-2-(2-(1-methyl-1H-pyrazol-4-yl)ethoxy)pyrido[4,3-d]pyrimidine]
IC50: 2290 nM

Oc1cccc(-c2ncc3c(N4C[C@H]5CC[C@@H](C4)N5)nc(OCC45CCCN4CCC5)nc3c2F)c1 [Example 271, 3-(4-((1R,5S)-3,8-diazabicyclo[3.2.1]octan-3-yl)-8-fluoro-2-((hexahydro-1H-pyrrolizin-7a-yl)methoxy)pyrido[4,3-d]pyrimidin-7-yl)phenol]
IC50: 1620 nM

CC(C)c1ncccc1-c1ncc2c(N3C[C@H]4CC[C@@H](C3)N4)nc(OC[C@@]34CCCN3C[C@H](F)C4)nc2c1F [Example 421, 4-((1R,5S)-3,8-diazabicyclo[3.2.1]octan-3-yl)-8-fluoro-2-(((2R,7aS)-2-fluorohexahydro-1H-pyrrolizin-7a-yl)methoxy)-7-(2-isopropylpyridin-3-yl)pyrido[4,3-d]pyrimidine]
IC50: 7750 nM

CN1C[C@H](OC(=O)NCCOCc2ccc(O)cc2)C[C@H]1COc1nc(N2C[C@H]3CC[C@@H](C2)N3)c2cnc(-c3cccc4cccc(Cl)c34)c(F)c2n1 [Example 260, (3R,5S)-5-(((4-((1R,5S)-3,8-diazabicyclo[3.2.1]octan-3-yl)-7-(8-chloronaphthalen-1-yl)-8-fluoropyrido[4,3-d]pyrimidin-2-yl)oxy)methyl)-1-methylpyrrolidin-3-yl (2-((4-hydroxybenzyl)oxy)ethyl)carbamate]
IC50: 107 nM

CC(C)(F)c1ccccc1-c1ncc2c(N3CC4CCC(C3)N4)nc(OC[C@@]34CCCN3C[C@H](F)C4)nc2c1F (stereo in doubt) [Example 407, 4-((1R,5S)-3,8-diazabicyclo[3.2.1]octan-3-yl)-8-fluoro-7-(2-(2-fluoropropan-2-yl)phenyl)-2-((2-fluorotetrahydro-1H-pyrrolizin-7a(5H)-yl)methoxy)pyrido[4,3-d]pyrimidine]
IC50: 560 nM
